Values after ≈ are worked out from the molar mass of the structure shown. Read-outs that look alike come from different tables or passages of the source.
Columns and labels:
[1] = system: intracellular N. gonorrhoeae; experiment: Intracellular killing in HeLa229 cells; format: cell-based, Neisseria gonorrhoeae; settings: within 24 h
Protocol: Intracellular killing was assessed within HeLa229 cells (European Collection of Authenticated Cell Cultures, London, UK) that were seeded at ~3 × 10^5 cells/mL and grown to 70–80% confluence in RPMI-glutamine media supplemented with 10% (v/v) heat-inactivated fetal bovine serum (FBS, Gibco, MA, USA). Cells were incubated at 37 °C with 5% CO2 for 24 h, then washed with serum-free RPMI-1640 prior to infection. N. gonorrhoeae was scraped from agar plates and resuspended in Dulbecco’s Phosphate Buffered Saline (DPBS, Sigma-Aldrich), pelleted, then resuspended in RPMI with 2% FBS. Bacterial suspensions were used to infect HeLa229 cells at a multiplicity of infection of 100:1. Plates were briefly centrifuged (500 × g for 5 min), then incubated for one hour. This incubation and all subsequent incubations were performed at 37 °C with 5% CO2. Non-adherent cells were removed by washing with serum-free RPMI, and the remaining extracellular bacteria were killed via resuspension in RPMI-glutamine supplemented with 2% FBS and 200 μg/mL gentamycin and incubation for one hour. […] Azithromycin-treated samples were included for control/comparison. […] Samples were diluted and plated onto chocolate II agar for viable bacteria quantification. Intracellular killing assays were performed at Microbiologics, Kalamazoo, MI, USA, using a method adapted from previous studies[68],[69].

N. gonorrhoeae = experiment: MIC determination, agar dilution (CLSI); format: cell-based, Neisseria gonorrhoeae; settings: for MIC: Neisseria gonorrhoeae
Text: The 2024 WHO N. gonorrhoeae reference strains were used for quality control. Only whole MIC doubling dilutions are reported. Clinical breakpoints or the epidemiological cutoff (ECOFF, to indicate azithromycin resistance) from EUCAST (v14.0, https://www.eucast.org/clinical_breakpoints) were used to classify isolates as antimicrobial susceptible or resistant. […] Two times the standard inoculum defined by CLSI was used to establish consistent growth in untreated control samples for some strains. In vitro time-kill assays were performed according to CLSI guidelines[65] using Columbia Broth (BD Difco) supplemented with 1% IsoVitaleX Enrichment (BD). Viable bacterial counts were generated by plating 10-fold serially diluted samples on GC agar plates containing 1% IsoVitaleX Enrichment (BD).

S. aureus ATCC 29213 = experiment: S. aureus neutropenic murine thigh infection model; format: in vivo, mouse; settings: S. aureus ATCC 29213, daily dose, 300 µg/mL ceftriaxone
Protocol: The S. aureus neutropenic murine thigh infection model was performed in accordance with the Guide for Care and Use of Laboratory Animals[75]. Animal rooms were maintained at a temperature range of 20–24 °C and humidity between 30% and 70%, with 12 h light/dark cycles. Female ICR mice (BioLASCO Taiwan Co., Ltd.) were rendered neutropenic via IP injection of cyclophosphamide four days before infection (150 mg/kg) and again one day before infection (100 mg/kg). Animals were anaesthetised with isoflurane (3–5%), then inoculated intramuscularly with S. aureus ATCC 29213 (~1 × 10^5 CFU/mouse). […] Animals were sacrificed via CO2 asphyxiation at either 2 h (baseline), 26 and/or 50 h post-infection. Thigh tissues were harvested and homogenised in 3 mL sterile PBS (pH 7.4). Bacterial burdens were determined by performing 10-fold serial dilutions and plating on nutrient agar plates.

Structure (SMILES): CC[C@H]1OC(=O)[C@H](C)[C@@H](O[C@H]2C[C@@](C)(OC)[C@@H](O)[C@H](C)O2)[C@H](C)[C@@H](O[C@@H]2O[C@H](C)C[C@H](N(C)C)[C@H]2O)[C@](C)(O)C[C@@H](C)CN(C)[C@H](C)[C@@H](O)[C@]1(C)O [Azithromycin]
- reduction of intracellular bacteria ([1]; ATCC 49226 in HeLa229 cells): ≥ 3.3 log10CFU/mL
- reduction of intracellular bacteria ([1]; WHO X in HeLa229 cells): ≥ 2.8 log10CFU/mL

Structure (SMILES): CO/N=C(\C(=O)N[C@@H]1C(=O)N2C(C(=O)O)=C(CSc3nc(=O)c(=O)[nH]n3C)CS[C@H]12)c1csc(N)n1 [Ceftriaxone, reference compound]
- susceptibility of all isolates (N. gonorrhoeae; 100 contemporary clinical N. gonorrhoeae isolates, EUCAST): susceptible
- MIC (N. gonorrhoeae; ATCC700825, ATCC 700825, mode of multiple measures, read-out: MIC): 0.002 µg/mL (≈ 0.00361 µM)
- MIC (N. gonorrhoeae; WHO H, agar dilution, read-out: MIC): 0.25 µg/mL (≈ 0.451 µM)
- MIC (N. gonorrhoeae; WHO K, agar dilution, read-out: MIC): 0.06 µg/mL (≈ 0.108 µM)
- MIC (N. gonorrhoeae; WHO L, agar dilution, read-out: MIC): 0.25 µg/mL (≈ 0.451 µM)
- MIC (N. gonorrhoeae; WHO Q, agar dilution, read-out: MIC): 0.5 µg/mL (≈ 0.902 µM)
- MIC (N. gonorrhoeae; WHO R, agar dilution, read-out: MIC): 0.5 µg/mL (≈ 0.902 µM)
- MIC (N. gonorrhoeae; WHO S2, agar dilution, read-out: MIC): < 0.008 µg/mL
- MIC (N. gonorrhoeae; WHO V, agar dilution, read-out: MIC): 0.06 µg/mL (≈ 0.108 µM)
- MIC (N. gonorrhoeae; WHO X-07 (CIP-R, CRO-R), mode of multiple measures, read-out: MIC): 2 µg/mL (≈ 3.61 µM)
- MIC (N. gonorrhoeae; WHO Y, agar dilution): 1 µg/mL (≈ 1.8 µM)
- AMR phenotype (susceptibility category, EUCAST) (N. gonorrhoeae; WHO F): S
- AMR phenotype (susceptibility category, EUCAST) (N. gonorrhoeae; WHO H): R
- AMR phenotype (susceptibility category, EUCAST) (N. gonorrhoeae; WHO K): S
- AMR phenotype (susceptibility category, EUCAST) (N. gonorrhoeae; WHO L): R
- AMR phenotype (susceptibility category, EUCAST) (N. gonorrhoeae; WHO M): S
- AMR phenotype (susceptibility category, EUCAST) (N. gonorrhoeae; WHO O): S
- AMR phenotype (susceptibility category, EUCAST) (N. gonorrhoeae; WHO P): S
- AMR phenotype (susceptibility category, EUCAST) (N. gonorrhoeae; WHO Q): R
- AMR phenotype (susceptibility category, EUCAST) (N. gonorrhoeae; WHO R): R
- AMR phenotype (susceptibility category, EUCAST) (N. gonorrhoeae; WHO S2): S
- AMR phenotype (susceptibility category, EUCAST) (N. gonorrhoeae; WHO U): S
- AMR phenotype (susceptibility category, EUCAST) (N. gonorrhoeae; WHO V): S
- AMR phenotype (susceptibility category, EUCAST) (N. gonorrhoeae; WHO X): R
- AMR phenotype (susceptibility category, EUCAST) (N. gonorrhoeae; WHO Y): R
- AMR phenotype (susceptibility category, EUCAST) (N. gonorrhoeae; WHO Z): R
- Mean Diff. 0h vs. treatment, log10 CFU (S. aureus ATCC 29213; 24h): 1.71
- Mean Diff. 0h vs. treatment, log10 CFU (S. aureus ATCC 29213; 48h): 2.684

— publication PMC12446476 (Nature Communications, 2025)
